Data: paper PMC11931052, “Efficacy of dispirotripiperazine PDSTP in a golden Syrian hamster model of SARS-CoV-2 infection” (Frontiers in Microbiology, 2025)

System: SARS-CoV-2 BA.4/5 variant
Assay type: cell-based
Details: Calu-3 cells; PDSTP 20 and 4 μM; plaque assay

Cc1nc(N2CC[N+]3(CC2)CC[N+]2(CCNCC2)CC3)c([N+](=O)[O-])c(N2CC[N+]3(CC2)CC[N+]2(CCNCC2)CC3)n1.Cl.Cl.O.O.O.O.O.O.O.O.O.[Cl-].[Cl-].[Cl-].[Cl-] [PDSTP, 3,3′-(2-methyl-5-nitropyrimidine-4,6-diyl)bis-3,12-diaza-6,9-diazonia-dispiro[5.2.5.2]hexadecane tetrachloride dihydrochloride nonahydrate]
Effect on viral titers, BA.4/5 variant: strongly reduce viral titers
